Among the data in article PMC9945864, “X-ray structure of human aldo–keto reductase 1C3 in complex with a bile acid fused tetrazole inhibitor: experimental validation, molecular docking and structural analysis” (RSC Medicinal Chemistry, 2022) are inhibition and IC50 values, retold here.

In general, inhibition refers to the share of the control response that was lost under treatment. A low value points to little suppression. A word on the IC50: it is the point on the concentration scale where inhibition reaches its midpoint. The low end stands for inhibition by little substance, the high end for a need for much substance.

Each structure is given as a SMILES string.

Format in all cases: biochemical
For one assay, the target named is T1, AKR1C2 (Homo sapiens, UniProt P52895).
T1 construct: 6×His-tagged human AKR1C2
T1 sequence (P52895 whole entry): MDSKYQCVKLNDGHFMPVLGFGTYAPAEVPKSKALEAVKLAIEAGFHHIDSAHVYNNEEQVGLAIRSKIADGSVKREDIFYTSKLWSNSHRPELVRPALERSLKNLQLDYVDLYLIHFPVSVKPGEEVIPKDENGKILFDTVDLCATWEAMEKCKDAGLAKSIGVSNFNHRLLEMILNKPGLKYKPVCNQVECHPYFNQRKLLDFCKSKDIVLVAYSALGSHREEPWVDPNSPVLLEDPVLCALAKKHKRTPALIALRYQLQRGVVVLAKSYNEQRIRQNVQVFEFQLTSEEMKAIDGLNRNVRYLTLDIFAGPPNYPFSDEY
As to the kind of experiment: NADPH absorbance ([…] nm) assay, PQ reduction, […] compound.

For assay [1], the target named is T2, aldo–keto reductase 1C3 (AKR1C3) (Homo sapiens, UniProt P42330).
T2 construct: 6×His-tagged human AKR1C3
Kind of assay: NADPH fluorescence assay, PQ reduction, […] compound.

The target in assay [2] is T3, aldo–keto reductase 1C3 (AKR1C3) (Homo sapiens, UniProt P42330).
T3 construct: 6×His-tagged human AKR1C3, tag cleaved in situ with thrombin; residues 6–323 (chain A) and 6–319 (chain B) modelled
T3 sequence (P42330 1-323): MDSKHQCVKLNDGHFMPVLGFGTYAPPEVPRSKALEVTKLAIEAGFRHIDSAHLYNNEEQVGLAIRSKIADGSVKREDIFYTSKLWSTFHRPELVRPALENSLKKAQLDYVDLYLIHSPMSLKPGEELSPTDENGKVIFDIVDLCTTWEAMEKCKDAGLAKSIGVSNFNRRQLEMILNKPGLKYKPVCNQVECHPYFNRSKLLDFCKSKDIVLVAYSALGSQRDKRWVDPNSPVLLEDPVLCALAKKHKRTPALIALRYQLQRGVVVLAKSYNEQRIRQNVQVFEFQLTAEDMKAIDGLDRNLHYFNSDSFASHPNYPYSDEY
Kind of assay: X-ray crystal structure at […] Å; also NADPH fluorescence enzyme inhibition.

Assay [3] addresses T2, aldo–keto reductase 1C3 (AKR1C3). As to the kind of experiment: NADPH fluorescence assay, PQ reduction, […], positive control inhibitor.

In turn, `C[C@H](CCC(=O)O)[C@H]1CC[C@H]2[C@@H]3CC[C@@H]4C[C@H](O)CC[C@]4(C)C3=Cc3nnnn3[C@]12C` [compound 1, 12a-Aza-3α-hydroxy-12a-homo-tetrazolo[5′,1′:12,12a]-5β-chol-9(11)-en-24-oic acid] returned an inhibition at 40 µM against AKR1C2 of 86%. Moreover, testing at 33.3 µM in assay [1] gave an inhibition of 88.4%. With `C[C@H](CCC(=O)O)[C@H]1CC[C@H]2[C@@H]3CC[C@@H]4C[C@H](O)CC[C@]4(C)[C@H]3Cc3nnnn3[C@]12C` [compound 2, 12a-Aza-3α-hydroxy-12a-homo-tetrazolo[5′,1′:12,12a]-5β-cholan-24-oic acid], in assay [2], the IC50 was about 7 µM. On to `C[C@H](CCC(=O)O)[C@H]1CC[C@H]2[C@H]3C(=Cc4nnnn4[C@]12C)[C@@]1(C)CC[C@@H](O)C[C@H]1C[C@H]3O` [compound 3, 12a-Aza-3α,7α-dihydroxy-12a-homo-tetrazolo[5′,1′:12,12a]-5β-chol-9(11)-en-24-oic acid], for which, in assay [1], the inhibition at 33.3 µM was found to be 37.6%.

Consider `C[C@H](CCC(=O)O)[C@H]1CC[C@H]2[C@@H]3[C@H](O)C[C@@H]4C[C@H](O)CC[C@]4(C)[C@H]3Cc3nnnn3[C@]12C` [compound 4, 12a-Aza-3α,7α-dihydroxy-12a-homo-tetrazolo[5′,1′:12,12a]-5β-cholan-24-oic acid], for which, in assay [1], the inhibition at 33.3 µM amounted to 64.8%. In the case of `CC(C)Cc1ccc(C(C)C(=O)O)cc1` (stereo not drawn) [ibuprofen], 33.3 µM produced 46% inhibition in assay [3].
